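Protocol summary: plate cells (96-well), add compound at 5 concentrations, incubate 48 h, interpolate endpoints linearly. Here, GI50 denotes the concentration required for 50% inhibition of growth.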 Activity calls are given as the source filed them. Rule as the data show it: active = GI50 up to about 1.1 µM and inactive = higher.
Experiments:
Assay in all cases: NCI anticancer screen, dose series, 48 h
MDA-MB-231 = test system: MDA-MB-231
MDA-N = test system: MDA-N
SR = test system: SR
MDA-MB-435 = test system: MDA-MB-435
DMS-114 = test system: DMS-114
M19-MEL = test system: M19-MEL
LXFL 529 = test system: LXFL 529
XF498 = test system: XF498
RXF 631 = test system: RXF 631

| SMILES | GI50 (MDA-MB-231) | GI50 (MDA-N) | GI50 (SR) | GI50 (MDA-MB-435) | GI50 (DMS-114) | GI50 (M19-MEL) | GI50 (LXFL 529) | GI50 (XF498) | GI50 (RXF 631) |
| --- | --- | --- | --- | --- | --- | --- | --- | --- | --- |
| O/N=C\c1cc(O)c(O)c(/C=N/O)c1 | 56.5 µM (inactive) | 47.9 µM (inactive) | 11 µM (inactive) | 38.8 µM (inactive) | – | – | – | – | – |
| Cc1cc(O)nc(NN2C(Cl)C(=O)C2c2cccc(Cl)c2)n1 (configuration not stated) | – | – | 16 µM (inactive) | – | 22.2 µM (inactive) | 33.9 µM (inactive) | > 10 µM (inactive) | – | – |
| COc1cc(C2S/C(=C/c3ccccc3)C(=O)N2c2ccccc2Cl)cc(OC)c1OC (configuration not stated) | 23.4 µM (inactive) | 15.7 µM (inactive) | – | 15.6 µM (inactive) | – | – | – | – | – |
| Nc1nc(Cl)nc2c1ncn2C1CC(O)C(CO)O1 (configuration not stated) | – | – | – | – | 0.228 µM (active) | > 30.3 µM (inactive) | – | – | – |
| C/C(CC(=O)Nc1ccccc1)=N\NC(N)=S | – | – | – | – | > 100 µM (inactive) | > 100 µM (inactive) | > 100 µM (inactive) | > 100 µM (inactive) | – |
| CC(C)(C)c1ccc2c(c1)OP1(Oc3c(Cl)cc(Cl)c4cccnc34)(O2)Oc2ccc(C(C)(C)C)cc2O1 | – | – | – | – | 2.62 µM (inactive) | 3.12 µM (inactive) | – | 13.5 µM (inactive) | – |
| COc1ccc(NC(C)=O)cc1N1C(=O)/C(=C\c2ccccc2)SC1c1cc(OC)c(OC)c(OC)c1 (configuration not stated) | 52.7 µM (inactive) | 25.8 µM (inactive) | 37.8 µM (inactive) | 24.9 µM (inactive) | – | – | – | – | – |
| COC(=O)C(Cc1ccc2c(c1)OCO2)(NC(=O)c1ccccc1)P(=O)(OC)OC (configuration not stated) | – | – | > 100 µM (inactive) | – | > 100 µM (inactive) | > 100 µM (inactive) | > 100 µM (inactive) | > 100 µM (inactive) | > 100 µM (inactive) |
| COc1ccc2nc(-n3c(/C=C/c4ccccc4O)nc4ccccc4c3=O)sc2c1 | > 100 µM (inactive) | 17 µM (inactive) | – | 19.7 µM (inactive) | – | – | – | – | – |
| C=C1C(=O)O[C@@H]2[C@H](O)[C@@H](C)[C@@H]3C=CC(=O)[C@@]3(C)[C@@H](OC(=O)/C(C)=C/C)[C@H]12 | – | – | – | – | 0.498 µM (active) | 0.363 µM (active) | – | 0.471 µM (active) | – |
| COC(=O)Cc1c(/C=C/C(C)(C)n2cnc(CCN3C(=O)CCC3=O)c2)[nH]c2ccccc12 | > 100 µM (inactive) | > 100 µM (inactive) | 61.4 µM (inactive) | > 100 µM (inactive) | – | – | – | – | – |
| O=C1CCCN1CCC/N=c1/cc2n(-c3ccc(Cl)cc3)c3ccccc3nc-2cc1Nc1ccc(Cl)cc1 | – | – | – | – | 6.38 µM (inactive) | 2.32 µM (inactive) | – | 19.7 µM (inactive) | – |
| CC(=O)C(CN1CCCCC1)C(c1ccccc1)c1c(O)c2ccccc2oc1=O (configuration not stated) | > 100 µM (inactive) | > 100 µM (inactive) | > 100 µM (inactive) | > 100 µM (inactive) | – | – | – | – | – |
| CCCCCCCCCCCCSC(=S)c1c(C)[nH]n(CCCCCCCCCCCC)c1=O | – | – | > 100 µM (inactive) | – | 46.1 µM (inactive) | 31.6 µM (inactive) | 67.9 µM (inactive) | – | > 100 µM (inactive) |
| O=c1ccc2ccc(CBr)cc2o1 | 1.72 µM (inactive) | 3.85 µM (inactive) | 2.2 µM (inactive) | 3.14 µM (inactive) | – | – | – | – | – |
| O=Cc1ccccc1CCn1c(=O)c2cc3c(=O)n(CCc4ccccc4C=O)c(=O)c3cc2c1=O | – | – | – | – | > 100 µM (inactive) | – | > 100 µM (inactive) | – | – |
| C=C1CC(Cn2cc(Br)c(=O)[nH]c2=O)(c2ccc(Br)cc2)OC1=O (configuration not stated) | 4.47 µM (inactive) | 2.37 µM (inactive) | 1.52 µM (inactive) | 2.88 µM (inactive) | – | – | – | – | – |
| O=c1c(C(c2ccc(OCc3ccccc3)cc2)c2c(O)oc3ccccc3c2=O)c(O)oc2ccccc12 | 27 µM (inactive) | 24.7 µM (inactive) | – | 41.9 µM (inactive) | – | – | – | – | – |
| Cc1ccc(S(=O)(=O)OCCN(CCOS(=O)(=O)c2ccc(C)cc2)c2ccc(C=O)cc2)cc1 | 23.8 µM (inactive) | – | – | 21.4 µM (inactive) | – | – | – | – | – |

Reference: ChEMBL document CHEMBL1201862, “PubChem BioAssay data set” (2004)
